Measurements reported in BindingDB's records for doi:10.1021/jm00021a021 (Tsukuba Research Institute, 1995).

Target: T1, Endothelin-1 receptor (Sus scrofa, UniProt Q29010)
T1 sequence (Q29010 whole entry): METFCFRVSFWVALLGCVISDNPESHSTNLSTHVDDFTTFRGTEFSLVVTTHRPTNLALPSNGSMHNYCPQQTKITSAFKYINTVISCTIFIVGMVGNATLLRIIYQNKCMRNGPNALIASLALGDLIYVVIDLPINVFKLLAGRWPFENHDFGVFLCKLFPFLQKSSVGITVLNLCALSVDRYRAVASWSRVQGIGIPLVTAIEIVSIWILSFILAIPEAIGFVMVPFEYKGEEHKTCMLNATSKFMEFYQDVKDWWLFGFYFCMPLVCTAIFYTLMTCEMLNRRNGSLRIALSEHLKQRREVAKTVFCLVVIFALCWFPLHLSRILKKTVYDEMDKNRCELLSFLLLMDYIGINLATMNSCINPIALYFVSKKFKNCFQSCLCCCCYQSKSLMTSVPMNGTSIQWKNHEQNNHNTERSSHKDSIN
Assay: The compound was tested for binding inhibitory activity against Endothelin A receptor from porcine aortic smooth muscle membranes.

IC50: 440 nM
SMILES: CC(C)C[C@@H]1NC(=O)[C@@H](CC(C)C)NC(=O)[C@H](C)NC(=O)[C@@H](CC(=O)O)NC(=O)[C@@H](Cc2c[nH]c3ccccc23)NC1=O
